The source of these data is US4602040A, “Meclofenamic acid topical pharmaceutical composition” (Warner-Lambert Company, priority 1985, dated 1986).

A short description of data set [1]: solubility of the drug in water and organic solvents. It counts as physicochemical.
The subject of data set [2] is carrageenan edema. The data set is described as follows: carrageenan-induced paw edema, topical meclofenamic acid, CD-1 mice. It counts as in vivo. The method, then: (§1) Method: Carrageenan edema was induced in mice by previously published methods (Levy, L., Life Sciences 8:601, 1969). Briefly, mice were injected in the left rear footpad with either 25 ul or 50 ul of a 1% solution of carrageenan in saline and in the contralateral footpad with a similar volume of saline. At various time intervals thereafter, the swelling was assessed in each of the rear footpads by mercury plethysmography.
In this example, female C57BL/6 or CD-1 mice were used in all studies, and swelling was assessed five hours after carrageenan injection by mercury plethysmography. Net edema was determined by subtracting the volume of the saline-injected foot from the volume of the carrageenan-injected foot. Meclofenamic acid was administered either topically or perorally one hour after carrageenan injection in a vehicle containing 50% PEG 400 monolaurate, 10 lantrol AWS, and 40% isopropyl alcohol. When applied topically, the appropriate hindpaw was dipped to the hairline in the meclofenamic acid solution or vehicle and rubbed gently for 15 seconds by a technician wearing rubber gloves. […]
(§2) Meclofenamic acid was administered orally by gavage needle in a volume of 50 ul of the monolaurate/lantrol AWS/isopropyl alcohol vehicle used above. Statistical differences in swelling between experimental groups were determined by student's t-test.
A general note: In the carrageenan paw model, swelling and tenderness develop within hours.

A short description of data set [3]: solubility in water-miscible solvents. It counts as physicochemical.
The test system of data set [4] is carrageenan edema. The data set can be described thus: carrageenan-induced paw edema, topical versus oral / distant-site administration. It counts as in vivo, C57BL/6 mice. The procedure:
as §1
(§3) In this example, female C57BL/6 or CD-1 mice were used in all studies, and swelling was assessed five hours after carrageenan injection by mercury plethysmography. Net edema was determined by subtracting the volume of the saline-injected foot from the volume of the carrageenan-injected foot. Meclofenamic acid was administered either topically or perorally one hour after carrageenan injection in a vehicle containing 50% PEG 400 monolaurate, 10 lantrol AWS, and 40% isopropyl alcohol. When applied topically, the appropriate hindpaw was dipped to the hairline in the meclofenamic acid solution or vehicle and rubbed gently for 15 seconds by a technician wearing rubber gloves. Approximately 50 ul of the meclofenamic acid or vehicle solution was used to treat each hindpaw.
as §2
To determine whether the observed activity of meclofenamic acid was actually due to topical rather than oral (as a result of preening) absorption, meclofenamic acid compositions (containing 1, 3 or 5% active ingredient in the above vehicle) were administered orally or topically (to the carrageenan-injected paw) and the effects on swelling were determined.

The subject of data set [5] is carrageenan edema. The data set can be described thus: carrageenan-induced paw edema, topical meclofenamic acid, C57BL/6 mice. It counts as in vivo. The procedure: as §1, §3, §2
Data set [6] is described as follows: octanol/water partition coefficient. It counts as physicochemical.

Molecules are shown by their SMILES.

In the case of `Cc1ccc(Cl)c(Nc2ccccc2C(=O)O)c1Cl` [meclofenamic acid], the “solubility in glycerin, isopropyl myristate and mineral oil” value in data set [1] (glycerin, isopropyl myristate, mineral oil) is on record as “insoluble”. Also, in data set [1] (propylene glycol, ethyl alcohol, linoleic acid), the “solubility in propylene glycol, ethyl alcohol and linoleic acid” value was “less than 5%”. The water solubility result in data set [1] (water) is reported as “virtually water-insoluble”. Also, the “reduction in swelling (in words)” value in the data set with carrageenan edema [2] (topical to carrageenan-injected foot one hour after carrageenan, swelling at five hours) was “dose-dependent reduction in swelling”; with carrageenan edema [5] (C57BL/6 mice, topical to carrageenan-injected foot one hour after carrageenan, swelling at five hours), “dose-dependent reduction in swelling”. Besides, the “inhibition of swelling (maximum effect)” value with carrageenan edema [2] (topical, 5% concentration, five hours after carrageenan) was 36.4%; in the data set on carrageenan edema [5] (C57BL/6 mice, topical, 3% concentration, five hours after carrageenan), 49.7%. For the same molecule, in data set [3] (heating up to 90° C., same solvents, compared with room temperature), the “solubility in water-miscible solvents with the aid of heating” value is “more”. In addition, the “solubility in water-miscible solvents” value in data set [3] (room temperature, PEG 400, PEG-8 monolaurate, PEG glucose ethers (Glucam-E 10, P-20), PEG-75 Lanolin Oil, PPG-5-Ceteth-10 Phosphate) was not above 5%. The “inhibition of swelling, carrageenan-injected foot versus distant site” value in the data set with carrageenan edema [4] (topical to carrageenan-injected foot vs distant site (saline-injected foot), 1, 3, and 5% concentrations, p<0.05) is “significantly (p<0.05) more inhibitory”. In addition, in the data set on carrageenan edema [4] (topical to carrageenan-injected foot vs oral, 1, 3, and 5% concentrations, p<0.05), the “inhibition of swelling, topical versus oral” value is “significantly (p<0.05) more inhibitory”. Moreover, in the data set on carrageenan edema [4] (topically applied, data from Examples 5 and 6), the local anti-inflammatory activity entry is given as “significant local anti-inflammatory activity”. Also, in the data set with carrageenan edema [5] (C57BL/6 compared with CD-1 mice, topical), the “sensitivity of C57BL/6 mice to the effects of meclofenamic acid” value is “slightly more sensitive”. In addition, in data set [6], the octanol/water partition coefficient result is reported as “highly favorable”.
